Experimental data from US11072626B2, “Small molecule inhibitors of Galectin-3” (BRISTOL-MYERS SQUIBB COMPANY, priority 2017, dated 2021).
Like-named read-outs stand apart in the source and are kept apart here.

Target: His-tagged recombinant human Gal-3 (hGal-3) (Homo sapiens (Human), UniProt P17931)
Experiment: Gal-3 HTRF assay (hGal-3 / B-ASF)
Format: binding
Conditions: 15 nM hGal-3, 15 nM B-ASF
Procedure: ASSAY BUFFER Composition: 25 mM HEPES, 100 mM NaCl, 0.005% Tween 20, 0.05% BSA prepared in sterile water (all reagents from Sigma)
Positive Control: 100% DMSO (1 μl)+His-tagged hGal-3 (20 μL)+B-ASF (20 μl)+Anti-His Terbium Antibody (5 μl)+Strep d2 Antibody (5 μl).
Negative Control: 100% DMSO (1 μl)+His-tagged hGal-3 (20μL)+Anti His Terbium Antibody (5 μl)+Strep d2 Aantibody (5 μl).
PROTOCOL: The Gal-3 assays were performed in 384 white Opti plates in three replicates at room temperature with gentle shaking at 250-300 rpm From the original stocks, […] working stock concentrations of His-tagged recombinant human Gal-3 (hGal-3) and that of B-ASF were prepared. From the working stock, 20 μl of hGal-3 (15 nM) and 20 μl B-ASF (15 nM) were added to the plates. In Negative Control, only hGal-3 was added. A concentration range of 50× working stocks were prepared for the compounds in 100% DMSO. Aliquots of 1 uL of the compounds were added to the wells and pre-incubated with 20 μl hGal-3 per well for 30 minutes Then 20 μl B-ASF were added and incubated for another 1 hour. To detect the signal, 5 μ(final conc. of 1.0 nM) terbium labelled Anti-His antibody was added and incubated for 30 min followed by adding 5 μ(final conc. of 20 nM) Streptavidin d2 and incubation for another 1 hour. The assay signal was detected using HTRF screen protocol (Excitation wavelength=340 nm, emission wavelength=615 nm/665 nm) on Envision 2104 Multilabel Reader. Data analysed using Toolset and Curve Master. Results are reported in the experimental section (IC50 in μM).

[1] = table after Example 46, read-out: hGal3 IC50
[2] = three replicates, room temperature, read-out: hGal3 IC50
[3] = table after Example 4, read-out: hGal3 IC50

Chain of His-tagged recombinant human Gal-3 (hGal-3) (P17931 whole entry): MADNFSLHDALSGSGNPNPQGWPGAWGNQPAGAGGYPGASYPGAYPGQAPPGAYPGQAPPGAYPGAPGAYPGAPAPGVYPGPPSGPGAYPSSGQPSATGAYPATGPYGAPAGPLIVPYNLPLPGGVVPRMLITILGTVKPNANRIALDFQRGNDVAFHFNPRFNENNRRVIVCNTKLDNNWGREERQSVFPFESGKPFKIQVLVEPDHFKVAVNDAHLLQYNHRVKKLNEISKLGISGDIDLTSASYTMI

Compound	IC50 [1]	further results
COc1ccc(-c2cn([C@H]3[C@@H](O)[C@@H](CO)O[C@H](Sc4ccc(Cl)c(Cl)c4)[C@@H]3OCC(=O)O)nn2)cc1 [Example 47]	1530 nM	–
COc1cccc(-c2cn([C@H]3[C@@H](O)[C@@H](CO)O[C@H](Sc4ccc(Cl)c(Cl)c4)[C@@H]3OCC(=O)O)nn2)c1 [Example 48]	740 nM	–
Cc1ccccc1-c1cn([C@H]2[C@@H](O)[C@@H](CO)O[C@H](Sc3ccc(Cl)c(Cl)c3)[C@@H]2OCC(=O)O)nn1 [Example 53]	1750 nM	–
O=C(O)CO[C@@H]1[C@@H](n2cc(-c3cccc(F)n3)nn2)[C@@H](O)[C@@H](CO)O[C@@H]1Sc1ccc(Cl)c(Cl)c1 [Example 57]	310 nM	–
O=C(O)CO[C@@H]1[C@@H](n2cc(-c3cc(F)ccn3)nn2)[C@@H](O)[C@@H](CO)O[C@@H]1Sc1ccc(Cl)c(Cl)c1 [Example 59]	5550 nM	–
OC[C@H]1O[C@H](Sc2ccc(Cl)c(Cl)c2)C[C@@H](n2cc(-c3cc(F)c(F)c(F)c3)nn2)[C@H]1O [Example 60, (2R,3R,4R,6R)-6-((3,4-dichlorophenyl)thio)-2-(hydroxymethyl)-4-(4-(3,4,5-trifluorophenyl)-1H-1,2,3-triazol-1-yl)tetrahydro-2H-pyran-3-ol]	–	IC50 [2]: 2200 nM
O=S(=O)(c1ccc(Cl)c(Cl)c1)[C@@H]1C[C@@H](n2cc(-c3cc(F)c(F)c(F)c3)nn2)[C@@H](O)[C@@H](CO)O1 [Example 61, (2R,3R,4R,6R)-6-((3,4-dichlorophenyl)sulfonyl)-2-(hydroxymethyl)-4-(4-(3,4,5-trifluorophenyl)-1H-1,2,3-triazol-1-yl)tetrahydro-2H-pyran-3-ol]	–	IC50 [2]: 160 nM
O=C(O)CO[C@@H]1[C@@H](n2cnc(-c3cccc(F)c3)c2)[C@@H](O)[C@@H](CO)O[C@@H]1Sc1ccc(Cl)c(Cl)c1 [Example 63, 2-(((2R,3R,4S,5R,6R)-2-((3,4-dichlorophenyl)thio)-4-(4-(3-fluorophenyl)-1H-imidazol-1-yl)-5-hydroxy-6-(hydroxymethyl)tetrahydro-2H-pyran-3-yl)oxy)acetic acid]	–	IC50 [2]: 1560 nM
O=C(O)CO[C@@H]1[C@@H](n2cc(-c3cc(F)c(F)c(F)c3)nn2)[C@@H](O)[C@@H](CO)O[C@@H]1Sc1ccc(Cl)c(Cl)c1 [compound 2, 2-(((2R,3R,4S,5R,6R)-2-((3,4-dichlorophenyl)thio)-5-hydroxy-6-(hydroxymethyl)-4-(4-(3,4,5-trifluorophenyl)-1H-1,2,3-triazol-1-yl)tetrahydro-2H-pyran-3-yl)oxy)acetic acid]	–	IC50 [3]: 46 nM
OC[C@H]1O[C@H](Sc2ccc(Cl)c(Cl)c2)[C@H](OCCN2CCOCC2)[C@@H](n2cc(-c3cc(F)c(F)c(F)c3)nn2)[C@H]1O [compound 5, (2R,3R,4S,5R,6R)-6-((3,4-dichlorophenyl)thio)-2-(hydroxymethyl)-5-(2-morpholinoethoxy)-4-(4-(3,4,5-trifluorophenyl)-1H-1,2,3-triazol-1-yl)tetrahydro-2H-pyran-3-ol]	–	IC50 [3]: 195 nM

The next lines start with results.

IC50 [1]	Compound	further results
1340 nM	Cc1cccc(-c2cn([C@H]3[C@@H](O)[C@@H](CO)O[C@H](Sc4ccc(Cl)c(Cl)c4)[C@@H]3OCC(=O)O)nn2)c1 [Example 49]	–
620 nM	O=C(O)CO[C@@H]1[C@@H](n2cc(-c3ccc(Cl)cc3)nn2)[C@@H](O)[C@@H](CO)O[C@@H]1Sc1ccc(Cl)c(Cl)c1 [Example 50]	–
1610 nM	O=C(O)CO[C@@H]1[C@@H](n2cc(-c3ccccc3F)nn2)[C@@H](O)[C@@H](CO)O[C@@H]1Sc1ccc(Cl)c(Cl)c1 [Example 51]	–
250 nM	O=C(O)CO[C@@H]1[C@@H](n2cc(-c3cc(F)cc(F)c3)nn2)[C@@H](O)[C@@H](CO)O[C@@H]1Sc1ccc(Cl)c(Cl)c1 [Example 52]	–
230 nM	Cc1cc(-c2cn([C@H]3[C@@H](O)[C@@H](CO)O[C@H](Sc4ccc(Cl)c(Cl)c4)[C@@H]3OCC(=O)O)nn2)ccc1F [Example 54]	–
70 nM	O=C(O)CO[C@@H]1[C@@H](n2cc(-c3ccc(F)c(F)c3)nn2)[C@@H](O)[C@@H](CO)O[C@@H]1Sc1ccc(Cl)c(Cl)c1 [Example 55]	–
7430 nM	COC(=O)c1ccc(-c2cn([C@H]3[C@@H](O)[C@@H](CO)O[C@H](Sc4ccc(Cl)c(Cl)c4)[C@@H]3OCC(=O)O)nn2)cc1 [Example 56]	–
840 nM	O=C(O)CO[C@@H]1[C@@H](n2cc(-c3ccc(F)cn3)nn2)[C@@H](O)[C@@H](CO)O[C@@H]1Sc1ccc(Cl)c(Cl)c1 [Example 58]	–
